Results on 6 compounds are retold here after patent US8247610B2, “Amine linked modulators of γ-secretase” (Janssen Pharmaceutica N.V., priority 2007, dated 2012).

One assay has as its target T1, γ-secretase (Homo sapiens, UniProt P49768).
T1 construct: endogenous in cells; host or cells: SKNBE2 cells carrying APP 695 wild type
In words: Screening for γ-secretase-modulating activity in SKNBE2 cells carrying the APP 695 wild type. In kind it is cell-based. Conditions: 0.3 μM; SKNBE2 cells carrying APP 695 wild type. Here is the method: Screening of the Compounds of the Invention for γ-Secretase-Modulating Activity
Screening was carried out using SKNBE2 cells carrying the APP 695—wild type, grown in DMEM/NUT-mix F12 (HAM) provided by Gibco (cat no. 31330-38) containing 5% Serum/Fe supplemented with 1% non-essential amino acids.
Cells were grown to near confluency.
The screening was performed using the assay as described in Citron et al (1997) Nature Medicine 3: 67.
Turning to `CC(C)CC(C(=O)O)c1cc(-c2ccc(C(F)(F)F)cc2)cc(N(C)c2ccc(C(F)(F)F)cc2)c1` (stereo not drawn) [Example 19, 4-Methyl-2-{5-[methyl-(4-trifluoromethyl-phenyl)-amino]-4′-trifluoromethyl-biphenyl-3-yl}-pentanoic acid], testing at 0.3 µM gave an inhibition of 22%.
Same read-out and setting: the result for `CC(C)CC(=O)N(c1ccc(Cl)cc1)c1cc(-c2ccc(C(F)(F)F)cc2)cc(C(CC(C)C)C(=O)O)c1` (stereo not drawn) [Example 23, 2-{5-[(4-Chloro-phenyl)-(3-methyl-butyryl)-amino]-4′-trifluoromethyl-biphenyl-3-yl}-4-methyl-pentanoic acid] reads 21%; that for `CC(C)CC(C(=O)O)c1cc(-c2ccc(C(F)(F)F)cc2)cc(N2CCc3ccccc32)c1` (stereo not drawn) [Example 24, 2-[5-(2,3-Dihydro-indol-1-yl)-4′-trifluoromethyl-biphenyl-3-yl]-4-methyl-pentanoic acid], 0%.

The same assay, now with this note: SKNBE2 cells carrying APP 695 wild type.
Compound `CC(C)CCN(c1ccc(Cl)cc1)c1cc(-c2ccc(C(F)(F)F)cc2)cc(C(CC(C)C)C(=O)O)c1` (stereo not drawn) [Example 18, 2-{5-[(4-Chloro-phenyl)-(3-methyl-butyl)-amino]-4′-trifluoromethyl-biphenyl-3-yl}-4-methyl-pentanoic acid] yielded an EC50 of 150 nM.
In turn, `CC(C)CCN(c1ccc(C(F)(F)F)cc1)c1cc(-c2ccc(C(F)(F)F)cc2)cc(C(CC(C)C)C(=O)O)c1` (stereo not drawn) [Example 20, 4-Methyl-2-{5-[(3-methyl-butyl)-(4-trifluoromethyl-phenyl)-amino]-4′-trifluoromethyl-biphenyl-3-yl}-pentanoic acid] displayed a concentration giving a half-maximal response (EC50) of 170 nM.
`CC(C)CC(C(=O)O)c1cc(-c2cc(F)cc(C(F)(F)F)c2)cc(N(C)c2cc(C(F)(F)F)cc(C(F)(F)F)c2)c1` (stereo not drawn) [Example 25, 2-[5′-Fluoro-5-(N-[3,5-bis-(trifluoromethyl)phenyl]-N-methylamino)-3′-trifluoromethyl-biphenyl-3-yl]-4-methyl-pentanoic acid] showed an EC50 of 600 nM.

For orientation: inhibition means the share of the control response that was lost under treatment. Lower therefore signals a response near the control. Usually EC50 stands for the midpoint of the concentration-response curve.
